In patent publication US4650874A, “N-(aralkoxybenzyl)-4(benzhydryl) piperidines” (G. D. Searle & Co., priority 1984, dated 1987):
Where a name gives a salt, the structure may show the parent alone.

Experiments:
[1] = molecular target: T1, vascular smooth muscle (isolated thoracic aorta segments) (Rattus norvegicus, UniProt P22002); assay: Calcium antagonism in vascular smooth muscle (isolated thoracic aorta segments from male spontaneously hypertensive rats); format: cell-based; settings: for activity as vascular calcium antagonist (in words): isolated SHR aorta; for Kb: read-out: pA2 (Ca++ Antagonism) (converted)
T1 construct: The excised aorta segment was mounted in a tissue bath containing modified Krebs solution; from tissue; host or cells: thoracic aorta segments of male spontaneously hypertensive rats
Procedure: Isolated thoracic aorta segments from the male spontaneously hypertensive rat were utilized in this test procedure.
The excised aorta segment was mounted in a tissue bath containing modified Krebs solution. After depolarization of the tissue with potassium (100 mM), calcium, in cumulative concentrations of 1×10^-3 M, 3.2×10^-3 M, and 1×10^-2 M was injected into the bath to produce vascular smooth muscle contraction. The developed tension (in grams) is measured and control dose-response values obtained. After one hour of incubation with a test compound at 1×10^-6 M concentration, the same doses of calcium ions were repeated. The log dose-response curves of the control and after treatment were analyzed by linear regression. The pA2 value was calculated as a measure of calcium antagonism of the test compound. See Van Rossum, J. M., Arch. Int. Pharmacodyn, 143, 299-330, 1963.
Calcium ions play an essential role in induction and maintenance of vascular smooth muscle contractility. In potassium depolarized vascular smooth muscle, calcium antagonists may block the entry of calcium ions into the cell or act by other mechanisms to inhibit the contractions induced by calcium ions. The inhibition of calcium ion - induced contraction of vascular smooth muscle is used to test compounds for vascular calcium antagonism. Cardiovascular diseases such as arrythmias, angina-pectoris, hypertension, and peripheral vascular disease may be casually related to abnormalities in cellular handling of calcium ions.

[2] = system: spontaneously hypertensive rats; assay: Anti-hypertensive activity in the unanesthetized spontaneously hypertensive rat (SHR) assay; format: in vivo; settings: for minimal effective dose: Rattus norvegicus, read-out: Threshold Dose mg/kg intravenous; for Threshold Dose mg/kg intravenous / minimal effective dose: intravenous; for Oral Activity (Blood Pressure Lowering): intragastrically 50 mg/kg
Procedure: Male, unanesthetized spontaneously hypertensive rats, 11 to 16 weeks old were used in this test procedure. The compounds to be tested were administered intragastrically at a dose of 50 mg/kg or intraarterially/intravenously at a dose of 10 mg/kg.
Initial mean arterial blood pressure was measured directly via a previously implanted arterial catheter immediately before administration of the test compound. Blood pressure readings were made at 1, 2, 3, and 4 hours following administration of the test compound. […] Statistical comparisons were made using the paired Student's T test with two sided probability calculations.

[3] = 1×10^-6 M, one hour incubation, K+ (100 mM) depolarized SHR aorta

T1 sequence (P22002 whole entry): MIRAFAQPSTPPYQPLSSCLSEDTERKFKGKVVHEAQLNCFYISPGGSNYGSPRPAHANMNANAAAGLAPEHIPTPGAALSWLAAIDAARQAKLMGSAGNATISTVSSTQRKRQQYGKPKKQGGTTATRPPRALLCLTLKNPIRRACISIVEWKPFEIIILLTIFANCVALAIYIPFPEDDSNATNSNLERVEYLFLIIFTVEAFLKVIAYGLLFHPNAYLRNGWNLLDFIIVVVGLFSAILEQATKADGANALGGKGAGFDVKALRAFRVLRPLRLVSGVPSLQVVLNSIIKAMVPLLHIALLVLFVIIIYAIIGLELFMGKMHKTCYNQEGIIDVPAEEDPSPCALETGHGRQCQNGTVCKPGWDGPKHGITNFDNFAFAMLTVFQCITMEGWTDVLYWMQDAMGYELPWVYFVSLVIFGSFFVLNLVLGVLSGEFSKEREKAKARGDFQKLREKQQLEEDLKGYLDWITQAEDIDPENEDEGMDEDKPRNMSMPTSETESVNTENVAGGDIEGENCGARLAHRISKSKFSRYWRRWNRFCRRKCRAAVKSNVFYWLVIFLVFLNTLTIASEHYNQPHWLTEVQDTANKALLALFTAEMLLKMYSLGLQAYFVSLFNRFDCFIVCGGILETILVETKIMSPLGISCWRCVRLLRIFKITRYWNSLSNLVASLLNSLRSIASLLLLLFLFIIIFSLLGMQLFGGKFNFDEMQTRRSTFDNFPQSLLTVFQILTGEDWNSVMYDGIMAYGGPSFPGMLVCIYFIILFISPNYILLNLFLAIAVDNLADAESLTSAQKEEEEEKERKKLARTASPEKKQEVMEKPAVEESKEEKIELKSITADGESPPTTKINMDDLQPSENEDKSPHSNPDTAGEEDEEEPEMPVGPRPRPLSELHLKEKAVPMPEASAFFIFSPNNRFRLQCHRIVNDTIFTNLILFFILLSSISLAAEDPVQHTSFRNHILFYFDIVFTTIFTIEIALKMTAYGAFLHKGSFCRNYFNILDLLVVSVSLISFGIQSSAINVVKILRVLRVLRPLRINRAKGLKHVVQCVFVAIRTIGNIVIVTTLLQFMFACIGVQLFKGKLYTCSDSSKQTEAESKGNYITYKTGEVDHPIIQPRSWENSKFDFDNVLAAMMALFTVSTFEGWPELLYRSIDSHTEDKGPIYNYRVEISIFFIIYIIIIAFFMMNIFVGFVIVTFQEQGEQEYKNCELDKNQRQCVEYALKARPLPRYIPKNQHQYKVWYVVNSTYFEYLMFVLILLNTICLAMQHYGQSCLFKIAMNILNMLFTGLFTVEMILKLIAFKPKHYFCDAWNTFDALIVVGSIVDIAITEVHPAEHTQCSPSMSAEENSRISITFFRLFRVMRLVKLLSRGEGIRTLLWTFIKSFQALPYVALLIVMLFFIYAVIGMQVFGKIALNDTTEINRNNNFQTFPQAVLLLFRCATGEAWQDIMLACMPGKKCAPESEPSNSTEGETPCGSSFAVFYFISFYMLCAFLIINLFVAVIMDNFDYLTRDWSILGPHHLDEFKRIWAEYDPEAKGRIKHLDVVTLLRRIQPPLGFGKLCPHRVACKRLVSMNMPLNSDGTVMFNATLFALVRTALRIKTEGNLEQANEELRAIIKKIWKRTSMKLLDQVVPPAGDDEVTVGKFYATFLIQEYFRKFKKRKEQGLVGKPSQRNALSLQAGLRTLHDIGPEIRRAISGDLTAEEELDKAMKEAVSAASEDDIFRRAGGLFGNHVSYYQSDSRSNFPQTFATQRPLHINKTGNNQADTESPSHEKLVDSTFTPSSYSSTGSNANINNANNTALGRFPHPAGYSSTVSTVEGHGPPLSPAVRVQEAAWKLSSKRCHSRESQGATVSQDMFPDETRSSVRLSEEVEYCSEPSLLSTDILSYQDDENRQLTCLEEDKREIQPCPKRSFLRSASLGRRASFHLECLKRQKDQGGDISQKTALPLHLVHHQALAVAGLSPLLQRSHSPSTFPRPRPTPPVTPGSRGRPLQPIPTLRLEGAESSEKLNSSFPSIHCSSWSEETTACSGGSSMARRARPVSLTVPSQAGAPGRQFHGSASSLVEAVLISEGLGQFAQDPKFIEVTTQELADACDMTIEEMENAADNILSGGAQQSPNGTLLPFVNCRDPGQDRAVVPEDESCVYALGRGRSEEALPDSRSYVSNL

COC(=O)C1=C(C)NC(C)=C(C(=O)OC)C1c1ccccc1[N+](=O)[O-] [Nifedipine, reference compound]
activity as vascular calcium antagonist (in words) [1]: active

Fc1cccc(C(c2cccc(F)c2)C2CCN(Cc3ccc(OCc4ccccc4)cc3)CC2)c1 [Example 13]
SHR mm Hg @ 10 mg/kg intravenous (blood pressure lowering) ([2]; SHR): inactive
Threshold Dose mg/kg intravenous ([2]; SHR): inactive
Kb [1, 3]: 12.9 nM

Clc1cccc(Cl)c1N=C1NCCN1 [Clonidine, reference compound]
activity in the hypertensive rat assay (in words) ([2]; rat, in vivo): active

COc1ccc([C@@H]2Sc3ccccc3N(CCN(C)C)C(=O)[C@@H]2OC(C)=O)cc1 [Diltiazem, reference compound]
activity as vascular calcium antagonist (in words) [1]: active

COc1cc(CN2CCC(C(c3ccccc3)c3ccccc3)CC2)ccc1OCc1ccccc1 [Example 21]
SHR mm Hg @ 10 mg/kg intravenous (blood pressure lowering) ([2]; SHR): 18 mm Hg
minimal effective dose ([2]; SHR): 0.1 mg/kg
Oral Activity (Blood Pressure Lowering) ([2]; SHR): active

COc1ccc(CN2CCC(C(c3ccccc3)c3ccccc3)CC2)cc1OCc1ccc(Cl)cc1 [Example 19]
SHR mm Hg @ 10 mg/kg intravenous (blood pressure lowering) ([2]; SHR): 75 mm Hg
minimal effective dose ([2]; SHR): 1 mg/kg
Kb [1, 3]: 457 nM

c1ccc(COc2ccc(CN3CCC(C(c4ccccc4)c4ccccc4)CC3)cc2)cc1 [Example 6, 4-(diphenylmethyl)-1-[[4-(phenylmethoxy)phenyl]methyl] piperidine, hydrochloride]
SHR mm Hg @ 10 mg/kg intravenous (blood pressure lowering) ([2]; SHR): 88 mm Hg
minimal effective dose ([2]; SHR): 0.3 mg/kg
Kb [1, 3]: 10.7 nM

Oc1ccc(CN2CCC(C(c3ccccc3)c3ccccc3)CC2)cc1 [Example 5, 4-[[4-(diphenylmethyl)-1-piperidinyl]methyl]phenol]
Oral Activity (Blood Pressure Lowering) ([2]; SHR): inactive

c1ccc(C(c2ccccc2)C2CCN(Cc3ccc(OCC4CCCCC4)cc3)CC2)cc1 [Example 20]
SHR mm Hg @ 10 mg/kg intravenous (blood pressure lowering) ([2]; SHR): inactive
Kb [1, 3]: 44.7 nM

COc1ccc(CCN(C)CCCC(C#N)(c2ccc(OC)c(OC)c2)C(C)C)cc1OC (stereo not shown) [Verapamil, reference compound]
activity as vascular calcium antagonist (in words) [1]: active

COc1ccc(COc2ccc(CN3CCC(C(c4ccccc4)c4ccccc4)CC3)cc2)cc1 [Example 9, 4-(diphenylmethyl)-1-[[4-[(4-methoxyphenyl)methoxy]phenyl]methyl]piperidine]
Kb [1, 3]: 41.7 nM

C[C@H](CS)C(=O)N1CCC[C@H]1C(=O)O [Captopril, reference compound]
activity in the hypertensive rat assay (in words) ([2]; SHR): active

Fc1ccccc1COc1ccc(CN2CCC(C(c3ccccc3)c3ccccc3)CC2)cc1 [Example 18, 4-(diphenylmethyl)-1-[[4-[(2-fluorophenyl)methoxy]phenyl]methyl]piperidine]
SHR mm Hg @ 10 mg/kg intravenous (blood pressure lowering) ([2]; SHR): 65 mm Hg
minimal effective dose ([2]; SHR): 0.3 mg/kg
Oral Activity (Blood Pressure Lowering) ([2]; SHR): active
Kb [1, 3]: 70.8 nM

Clc1ccc(COc2ccc(CN3CCC(C(c4ccccc4)c4ccccc4)CC3)cc2)cc1 [Example 14, 1-[[4-[(4-chlorophenyl)methoxy]phenyl]methyl]-4-(diphenylmethyl)piperidine]
Oral Activity (Blood Pressure Lowering) ([2]; SHR): active
Kb [1, 3]: 38.9 nM

Cc1ccc(COc2ccc(CN3CCC(C(c4ccccc4)c4ccccc4)CC3)cc2)cc1 [Example 7, 4-(diphenylmethyl)-1-[[4-[(4-methylphenyl)methoxy]phenyl]methyl] piperidine, 2-butendioate]
SHR mm Hg @ 10 mg/kg intravenous (blood pressure lowering) ([2]; SHR): 56 mm Hg
minimal effective dose ([2]; SHR): 1 mg/kg

COc1ccc(COc2ccc(CN3CCC(C(c4ccc(F)cc4)c4ccc(F)cc4)CC3)cc2)cc1 [Example 8]
SHR mm Hg @ 10 mg/kg intravenous (blood pressure lowering) ([2]; SHR): 50 mm Hg
minimal effective dose ([2]; SHR): 1 mg/kg
Kb [1, 3]: 18.2 nM

Clc1ccc(COc2ccc(CN3CCC(C(c4ccccc4)c4ccccc4)CC3)cc2)c(Cl)c1 [Example 17, 1-[[4-[(2,4-dichlorophenyl)methoxy]phenyl]methyl]-4-(diphenylmethyl)piperidine]
SHR mm Hg @ 10 mg/kg intravenous (blood pressure lowering) ([2]; SHR): inactive
Threshold Dose mg/kg intravenous ([2]; SHR): inactive
Kb [1, 3]: 40.7 nM

Fc1ccc(C(c2ccc(F)cc2)C2CCN(Cc3ccc(OCc4ccc(Cl)cc4)cc3)CC2)cc1 [Example 11, 4-[bis(4-fluorophenyl)methyl]-1-[[4-[(4-chlorophenyl)methoxy]phenyl]methyl]piperidine, hydrobromide]
SHR mm Hg @ 10 mg/kg intravenous (blood pressure lowering) ([2]; SHR): 107 mm Hg
minimal effective dose ([2]; SHR): 0.3 mg/kg
Kb [1, 3]: 8.71 nM

COc1ccc(CN2CCC(C(c3ccccc3)c3ccccc3)CC2)cc1OCc1ccccc1 [Example 3, 4-(diphenylmethyl)-1-[[[4-methoxy-3-(phenylmethoxy)phenyl]methyl]piperidine, ethanedioate]
SHR mm Hg @ 10 mg/kg intravenous (blood pressure lowering) ([2]; SHR): 79 mm Hg
minimal effective dose ([2]; SHR): 0.3 mg/kg
Kb [1, 3]: 25.7 nM

Fc1ccc(C(c2ccc(F)cc2)C2CCN(Cc3ccc(OCc4ccc(Cl)cc4Cl)cc3)CC2)cc1 [Example 12, 4-[bis(4-fluorophenyl)methyl]-1-[[4-[(2,4-dichlorophenyl)methoxy]phenyl]methyl] piperidine, hydrochloride]
SHR mm Hg @ 10 mg/kg intravenous (blood pressure lowering) ([2]; SHR): 79 mm Hg
minimal effective dose ([2]; SHR): 0.1 mg/kg
Kb [1, 3]: 30.2 nM

CC(C)(C)NC(=O)c1cc(OCc2ccccc2)ccc1CN1CCC(C(c2ccccc2)c2ccccc2)CC1 [Example 4, 2-[[4-(diphenylmethyl)-1-piperidinyl]methyl]-5-(phenylmethoxy)-N-(1,1-dimethylethyl) benzamide]
SHR mm Hg @ 10 mg/kg intravenous (blood pressure lowering) ([2]; SHR): 29 mm Hg
minimal effective dose ([2]; SHR): 0.3 mg/kg
Kb [1, 3]: 186 nM

CCOC(=O)c1cc(OCc2ccccc2)ccc1CN1CCC(C(c2ccccc2)c2ccccc2)CC1 [Example 2, ethyl 2-[[4-(diphenylmethyl)-1-piperidinyl]methyl]-5-(phenylmethoxy)benzoate]
SHR mm Hg @ 10 mg/kg intravenous (blood pressure lowering) ([2]; SHR): inactive
pA2 (Ca++ Antagonism) [1, 3]: inactive

NNc1nncc2ccccc12 [Apresoline, reference compound]
activity in the hypertensive rat assay (in words) ([2]; rat, in vivo): active

Clc1ccc(COc2ccc(CN3CCC(C(c4ccccc4)c4ccccc4)CC3)cc2)cc1Cl [Example 16, 1-[[4-[(3,4-dichlorophenyl)methoxy]phenyl]methyl]-4-(diphenylmethyl)piperidine, 2-butenedioate]
SHR mm Hg @ 10 mg/kg intravenous (blood pressure lowering) ([2]; SHR): 81 mm Hg
minimal effective dose ([2]; SHR): 0.3 mg/kg

Clc1ccc(COc2ccc(CN3CCC(C(c4ccccc4)c4ccccc4)CC3)cc2)cc1 [Example 15, 1-[[4-[(4-chlorophenyl)methoxy]phenyl]methyl]-4-(diphenylmethyl)piperidine, 2-butenedioate]
SHR mm Hg @ 10 mg/kg intravenous (blood pressure lowering) ([2]; SHR): 89 mm Hg
minimal effective dose ([2]; SHR): 1 mg/kg

C[C@](N)(Cc1ccc(O)c(O)c1)C(=O)O [Aldomet, reference compound]
activity in the hypertensive rat assay (in words) ([2]; SHR): active

Fc1ccc(C(c2ccc(F)cc2)C2CCN(Cc3ccc(OCc4ccccc4)cc3)CC2)cc1 [Example 10, [bis(4-fluorophenyl)methyl]-1-[[4-(phenylmethoxy)phenyl]methyl]piperidine]
SHR mm Hg @ 10 mg/kg intravenous (blood pressure lowering) ([2]; SHR): 67 mm Hg
minimal effective dose ([2]; SHR): 0.3 mg/kg
Kb [1, 3]: 26.9 nM
